Results as given in patent publication US20240246941A1, “SUBSTITUTED 4-(3-AMINOPROP-1-YL)AMINOQUINOLINE ANALOGS AS MODULATORS OF MELANOMA-ASSOCIATED ANTIGEN 11 UBIQUITIN LIGASE” (ST. JUDE CHILDREN'S RESEARCH HOSPITAL, INC., priority 2020, published 2024).
pIC50: −log10 of the molar value. Where two headings read alike, the source gives them in different places.

Target: interaction between GST-MAGEA11 MHD and FAM-PCF11_4 peptide (MAGE-A11:PCF11) (Homo sapiens (Human), UniProt P43364)
Test: TR-FRET dose response competition assay for disruption of MAGE-A11:PCF11 binding
Summary of the method: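 Competition TR-FRET at room temperature in 50 mM Tris pH 7.5, 20 mM MgCl2, 0.1 mg/ml BSA, 1 mM DTT: final 5 nM GST-MAGEA11 MHD, 5 nM Tb-anti-GST, 200 nM FAM-PCF11_4, 90 min. Ratio 520/490 nm converted to % inhibition; IC50 from sigmoidal fit.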

[1] = Dose response TR-FRET screening of nine scaffold groups against MAGE-A11:PCF11, read-out: consensus IC50
[2] = Table 8, representative compounds, read-out: TR-FRET IC50
[3] = Table 5, dose response TR-FRET screening of 59 quinoline compounds against MAGE-A11:PCF11, read-out: TR-FRET IC50

Sequence of interaction between GST-MAGEA11 MHD and FAM-PCF11_4 peptide (MAGE-A11:PCF11) (P43364 218-429): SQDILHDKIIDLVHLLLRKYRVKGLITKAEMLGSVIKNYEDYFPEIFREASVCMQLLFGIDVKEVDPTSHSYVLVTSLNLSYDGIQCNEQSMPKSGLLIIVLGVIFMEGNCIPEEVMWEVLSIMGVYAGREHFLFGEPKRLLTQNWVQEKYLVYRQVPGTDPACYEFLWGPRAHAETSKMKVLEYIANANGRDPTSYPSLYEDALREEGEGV

Compound	pIC50 [1]	pIC50 [2]	also measured
COc1ccc(F)cc1CNCCCNc1ccnc2cc(Oc3ccc(F)cc3)ccc12 [SJ000311225-1]	4.16		
COc1ccc(F)cc1CNCCCNc1ccnc2cc(Oc3ccc(F)cc3)ccc12 [SJ000311225]		4.16	
Clc1ccc(Oc2ccc3c(NCCCNCc4ccco4)ccnc3c2)cc1 [SJ000311226-1]			pIC50 [3]: < 4.15
COc1cccc(CNCCCNc2ccnc3cc(Oc4ccc(Cl)cc4)ccc23)c1O [SJ000311227-1]	4.68		
COc1cccc(CNCCCNc2ccnc3cc(Oc4ccc(Cl)cc4)ccc23)c1O [SJ000311227]		4.68	
Clc1ccc(Oc2ccc3c(NCCCNCc4cccc5c4OCO5)ccnc3c2)cc1 [SJ000311228-1]	4.75		
Clc1ccc(Oc2ccc3c(NCCCNCc4cccc5c4OCO5)ccnc3c2)cc1 [SJ000311228]		4.75	
COc1ccc(F)cc1CNCCCNc1ccnc2cc(Oc3ccc(Cl)cc3)ccc12 [SJ000311229-1]	4.71		
COc1ccc(F)cc1CNCCCNc1ccnc2cc(Oc3ccc(Cl)cc3)ccc12 [SJ000311229]		4.71	
CN(C)c1cccc(Oc2ccc3c(NCCCNCc4ccco4)ccnc3c2)c1 [SJ000311230-1]			pIC50 [3]: < 4.15
COc1cccc(CNCCCNc2ccnc3cc(Oc4cccc(N(C)C)c4)ccc23)c1O [SJ000311231-1]	4.16		
COc1cccc(CNCCCNc2ccnc3cc(Oc4cccc(N(C)C)c4)ccc23)c1O [SJ000311231]		4.16	
CN(C)c1cccc(Oc2ccc3c(NCCCNCc4cccc5c4OCO5)ccnc3c2)c1 [SJ000311232-1]	4.16		
CN(C)c1cccc(Oc2ccc3c(NCCCNCc4cccc5c4OCO5)ccnc3c2)c1 [SJ000311232]		4.16	
COc1ccc(F)cc1CNCCCNc1ccnc2cc(Oc3cccc(N(C)C)c3)ccc12 [SJ000311233-1]	5.25		
COc1ccc(F)cc1CNCCCNc1ccnc2cc(Oc3cccc(N(C)C)c3)ccc12 [SJ000311233]		5.25	
CC(C)(C)c1ccc(Oc2ccc3c(NCCCNCc4ccco4)ccnc3c2)cc1 [SJ000311234-1]			pIC50 [3]: 4.49
COc1cccc(CNCCCNc2ccnc3cc(Oc4ccc(C(C)(C)C)cc4)ccc23)c1O [SJ000311235-1]	5.12		
COc1cccc(CNCCCNc2ccnc3cc(Oc4ccc(C(C)(C)C)cc4)ccc23)c1O [SJ000311235]		5.12	
CC(C)(C)c1ccc(Oc2ccc3c(NCCCNCc4cccc5c4OCO5)ccnc3c2)cc1 [SJ000311236-1]	5.06		
CC(C)(C)c1ccc(Oc2ccc3c(NCCCNCc4cccc5c4OCO5)ccnc3c2)cc1 [SJ000311236]		5.06	
COc1ccc(F)cc1CNCCCNc1ccnc2cc(Oc3ccc(C(C)(C)C)cc3)ccc12 [SJ000311237-1]	5.20		
COc1ccc(F)cc1CNCCCNc1ccnc2cc(Oc3ccc(C(C)(C)C)cc3)ccc12 [SJ000311237]		5.20	
COc1cccc(CNCCCNc2ccnc3cc(-c4ccc(F)cc4)ccc23)c1O [SJ000311239-1]	4.48		
COc1cccc(CNCCCNc2ccnc3cc(-c4ccc(F)cc4)ccc23)c1O [SJ000311239]		4.48	

Compound	pIC50 [1]	pIC50 [2]	also measured
Fc1ccc(-c2ccc3c(NCCCNCc4cccc5c4OCO5)ccnc3c2)cc1 [SJ000311240-1]	4.60		
Fc1ccc(-c2ccc3c(NCCCNCc4cccc5c4OCO5)ccnc3c2)cc1 [SJ000311240]		4.60	
COc1ccc(F)cc1CNCCCNc1ccnc2cc(-c3ccc(F)cc3)ccc12 [SJ000311241-1]	4.41		
COc1ccc(F)cc1CNCCCNc1ccnc2cc(-c3ccc(F)cc3)ccc12 [SJ000311241]		4.41	
COc1cccc(CNCCCNc2ccnc3cc(Cc4ccc(F)cc4)ccc23)c1O [SJ000311243-1]	4.36		
COc1cccc(CNCCCNc2ccnc3cc(Cc4ccc(F)cc4)ccc23)c1O [SJ000311243]		4.36	
Fc1ccc(Cc2ccc3c(NCCCNCc4cccc5c4OCO5)ccnc3c2)cc1 [SJ000311244-1]	4.37		
Fc1ccc(Cc2ccc3c(NCCCNCc4cccc5c4OCO5)ccnc3c2)cc1 [SJ000311244]		4.37	
COc1ccc(F)cc1CNCCCNc1ccnc2cc(Cc3ccc(F)cc3)ccc12 [SJ000311245-1]	4.46		
COc1ccc(F)cc1CNCCCNc1ccnc2cc(Cc3ccc(F)cc3)ccc12 [SJ000311245]		4.46	
COc1cccc(CNCCCNc2ccnc3cc(CCC(C)C)ccc23)c1O [SJ000311247-1]	4.16		
COc1cccc(CNCCCNc2ccnc3cc(CCC(C)C)ccc23)c1O [SJ000311247]		4.16	
CC(C)CCc1ccc2c(NCCCNCc3cccc4c3OCO4)ccnc2c1 [SJ000311248-1]	4.56		
CC(C)CCc1ccc2c(NCCCNCc3cccc4c3OCO4)ccnc2c1 [SJ000311248]		4.56	
COc1ccc(F)cc1CNCCCNc1ccnc2cc(CCC(C)C)ccc12 [SJ000311249-1]	4.16		
COc1ccc(F)cc1CNCCCNc1ccnc2cc(CCC(C)C)ccc12 [SJ000311249]		4.16	
c1coc(CNCCCNc2ccnc3cc(CC4CCCCC4)ccc23)c1 [SJ000311250-1]			pIC50 [3]: 4.26
COc1cccc(CNCCCNc2ccnc3cc(CC4CCCCC4)ccc23)c1O [SJ000311251-1]	4.53		
COc1cccc(CNCCCNc2ccnc3cc(CC4CCCCC4)ccc23)c1O [SJ000311251]		4.53	
c1cc(CNCCCNc2ccnc3cc(CC4CCCCC4)ccc23)c2c(c1)OCO2 [SJ000311252-1]	4.79		
c1cc(CNCCCNc2ccnc3cc(CC4CCCC4)ccc23)c2c(c1)OCO2 [SJ000311252]		4.80	
COc1ccc(F)cc1CNCCCNc1ccnc2cc(CC3CCCCC3)ccc12 [SJ000311253-1]	4.58		
COc1ccc(F)cc1CNCCCNc1ccnc2cc(CC3CCCCC3)ccc12 [SJ000311253]		4.58	
COc1cccc(CNCCCNc2ccnc3cc(CCc4ccccc4)ccc23)c1O [SJ000311255-1]	4.58		
COc1cccc(CNCCCNc2ccnc3cc(CCc4ccccc4)ccc23)c1O [SJ000311255]		4.58	

Compound	pIC50 [1]	pIC50 [2]	also measured
COc1ccc(F)cc1CNCCCNc1ccnc2cc(CCc3ccccc3)ccc12 [SJ000311256-1]	4.43		
COC1CCCC(F)CC1CNCCCNc1ccnc2cc(CCc3ccccc3)ccc12 (centres unmarked) [SJ000311256]		4.43	
c1ccc(CCc2ccc3c(NCCCNCc4cccc5c4OCO5)ccnc3c2)cc1 [SJ000311257-1]	4.21		
c1ccc(CCc2ccc3c(NCCCNCc4cccc5c4OCO5)ccnc3c2)cc1 [SJ000311257]		4.21	
COc1cccc(CNCCCNc2ccnc3cc(CC(C)C)ccc23)c1O [SJ000311259-1]	4.16		
COc1cccc(CNCCC/N=C2/C=CNC3=CC=C(CC(C)C)C=CC32)c1O (centres unmarked) [SJ000311259]		4.16	
CC(C)Cc1ccc2c(NCCCNCc3cccc4c3OCO4)ccnc2c1 [SJ000311260-1]	4.16		
CC(C)Cc1ccc2c(NCCCNCc3cccc4c3OCO4)ccnc2c1 [SJ000311260]		4.16	
COc1ccc(F)cc1CNCCCNc1ccnc2cc(CC(C)C)ccc12 [SJ000311261-1]	4.16		
COc1ccc(F)cc1CNCCCNc1ccnc2cc(CC(C)C)ccc12 [SJ000311261]		4.16	
c1coc(CNCCCNc2ccnc3cc(C4CCCCC4)ccc23)c1 [SJ000311262-1]			pIC50 [3]: < 4.15
COc1cccc(CNCCCNc2ccnc3cc(C4CCCCC4)ccc23)c1O [SJ000311263-1]	4.49		
COc1cccc(CNCCCNc2ccnc3cc(C4CCCCC4)ccc23)c1O [SJ000311263]		4.49	
c1cc(CNCCCNc2ccnc3cc(C4CCCCC4)ccc23)c2c(c1)OCO2 [SJ000311264-1]	4.62		
c1cc(CNCCCNc2ccnc3cc(C4CCCCC4)ccc23)c2c(c1)OCO2 [SJ000311264]		4.62	
COc1ccc(F)cc1CNCCCNc1ccnc2cc(C3CCCCC3)ccc12 [SJ000311265-1]	4.62		
COc1ccc(F)cc1CNCCCNc1ccnc2cc(C3CCCCC3)ccc12 [SJ000311265]		4.62	
CCC(CC)c1ccc2c(NCCCNCc3cccc(OC)c3O)ccnc2c1 [SJ000311267-1]	5.00		
CCC(CC)c1ccc2c(NCCCNCc3cccc(OC)c3O)ccnc2c1 [SJ000311267]		5.00	
CCC(CC)c1ccc2c(NCCCNCc3cccc4c3OCO4)ccnc2c1 [SJ000311268-1]	4.54		
CCC(CC)c1ccc2c(NCCCNCc3cccc4c3OCO4)ccnc2c1 [SJ000311268]		4.54	
CCC(CC)c1ccc2c(NCCCNCc3cc(F)ccc3OC)ccnc2c1 [SJ000311269-1]	4.37		
CCC(CC)c1ccc2c(NCCCNCc3cc(F)ccc3OC)ccnc2c1 [SJ000311269]		4.37	
COc1cccc(CNCCCNc2ccnc3cc(-c4cc(C(F)(F)F)cc(C(F)(F)F)c4)ccc23)c1O [SJ000311271-1]	4.16		
